Legend:
Format in all cases: biochemical, Trichoderma atroviride
Chi18 model RNA [1] = experiment: Droplet Digital Polymerase Chain Reaction (ddPCR) Assay, Chi18; settings: percent protection, pH 11.0, 30° C., 16 hours, n = 2
Description: (§1) The ddPCR assays measure RNA integrity by converting intact RNA to cDNA by reverse transcription, then performing digital PCR in thousands of nanoliter-sized droplets for each sample. PCR is performed within each droplet, which allows for more sensitive detection of subtle changes in RNA concentration compared to traditional PCR or qPCR. Additionally, primers/probes specific to the 5′ end of the RNA/cDNA transcript(s) are used to assess fragment integrity—e.g. degraded RNA will have fewer 5′ positive droplets. The BioRad QX200 Droplet Digital PCR System was used for the ddPCR workflow.
(§2) Basic assay procedure: RNA samples (Chi18 or FgenL fragments) were diluted to 25 fg/μL or 10 fg/μL, respectively, in 50 mM […] buffer pH 11.0. Amino acid stocks were made up in 50 mM CAPS buffer, pH 11.0 and subsequently re-adjusted to pH 11.0, post solubilization. Amino acid stocks were tested in a dose-response format to determine EC50. An amino acid dilution plate containing a ˜300 mM (or appropriate) top-concentration of amino acid in 50 mM CAPS buffer was serially (half-log) diluted for 10 times. 0.6 μL of this compound dilution plate was spotted into a 96-well PCR plate (Thermo). Sample RNAs were added (6 μL) and incubated with test amino acid as described below.
(§3) Degradation reaction: Treated RNAs were incubated for 16 hours at 30° C. for Chi18 samples or 44° C. for FgenL samples. Upon completion of the degradation reaction, cDNA was made from the intact RNA by Reverse Transcription and ddPCR run for each sample (96 well plates). Positive 5′ droplet values were divided by the total accepted droplet values for each sample and a ratio value generated for each sample.
(§4) EC50 was determined by using a four parameter logistic equation: Y=A+((B−A)/(1+(C/X)D)); where Y is percent protection, X is compound concentration, A and B are minimum and maximum asymptotes, respectively, C is EC50, and D is Hill slope.

FgenL model RNA [2] = experiment: TapeStation Assay, FgenL model RNA; design: Conc. FgenL#1 / Conc. FgenL#2: unit not given here; settings: for % Control N = 1 / % Control N = 2 / % Control Average: FgenL RNA, 20 mM amino acids, 50 mM CAPS pH 11, 50° C. 15 min; for % Control N = 1 / % Control N = 2: vs Time 0; for % Control Average: vs Time 0, Avg N=2; for Conc. FgenL#1 / Conc. FgenL#2: intact FgenL RNA after 15 min at 50° C.; for Conc. FgenL#1: 20 mM amino acids in 50 mM CAPS pH 11, run #1; for Conc. FgenL#2: 20 mM amino acids in 50 mM CAPS pH 11, run #2
Description: (§5) These assays were performed with amino acids and compared to a no-degradation baseline control to gauge degree of protection imparted by the amino acid. Multiple functional assay approaches were used where differing endpoints were measured including a droplet digital PCR (ddPCR) assay where intact RNA sequence was quantitated, a size exclusion base hydrolysis degradation assay that used a size exclusion column to determine the degree of degradation occurring to an mRNA construct, and finally, a TapeStation assay that utilizes capillary electrophoresis and optical detection to measure intact RNA. […] Affinity selection by mass spectrometry (ASMS), native electrospray ionization mass spectrometry (nESI-MS) and nuclear magnetic resonance (NMR) may be used as several complementary approaches to ascertain compound binding to RNA. The latter techniques utilize MS to measure mass of bound compound alone (ASMS), or mass of RNA and bound compound (nESI-MS). The nESI-MS and NMR studies may be conducted to provide direct analytical quantification of resulting complex via measurement of mass (nESI-MS) or chemical shifts (NMR). The ASMS experiment is conducted to determine saturation binding of the compound to RNA where resulting apparent binding constants (KD,App) may be generated. Further descriptions of the functional and binding assays are provided in the section below.
(§6) In principle, samples are loaded to the instrument where electrophoresis separates component RNA's on the basis of mass, and subsequently analyzes these optically as they travel through the capillary.
(§7) RNA samples were diluted to the appropriate concentration to fall within the linear range of detection for the RNA ScreenTape Assay. Model Chi18 or FgenL RNAs were diluted to 50 ng/μL in 50 mM CAPS buffer pH 11. Amino acid stocks were made up in 50 mM CAPS pH 11 and re-adjusted to >pH 11 after solubilization. […] The samples were aliquoted to PCR tubes for each time point (Time 0 or 15 minutes). Degradation reaction: Samples were incubated at 50° C. for 0 to 15 minutes in a thermocycler, removed at the appropriate time point and placed on ice. Time 0 samples remained on ice.

Chi18 model RNA [3] = experiment: TapeStation Assay, Chi18 model RNA; design: Conc. chi18#1 / Conc. chi18#2: unit not given here; settings: for % Control N = 1 / % Control N = 2 / % Control Avg.: Chi18 RNA, 20 mM amino acids, 50 mM CAPS pH 11, 50° C. 15 min; for % Control N = 1 / % Control N = 2: vs Time 0; for % Control Avg.: vs Time 0, Avg N=2; for Conc. chi18#1 / Conc. chi18#2: intact Chi18 RNA after 15 min at 50° C.; for Conc. chi18#1: 20 mM amino acids in 50 mM CAPS pH 11, run #1; for Conc. chi18#2: 20 mM amino acids in 50 mM CAPS pH 11, run #2
Description: as §5, §6, §7

Chi18 mRNA construct = experiment: Size Exclusion Base Hydrolysis Degradation Assay, Chi18; settings: for T0 R1 peak area at 250 nm: Chi18 0.1 mg/mL, 25 mM amino acid, 50 mM CAPS, T=0, replicate 1; for T2 Avg, peak area as percentage of T=0 / T2 R1 peak area at 250 nm / T10 Avg, peak area as percentage of T=0 / T10 R1 peak area at 250 nm / T24 Avg, peak area as percentage of T=0 / T24 R1 peak area at 250 nm / T0 Avg, peak area as percentage of T=0: Chi18, 25 mM amino acid; for T2 Avg, peak area as percentage of T=0 / T2 R1 peak area at 250 nm / T10 Avg, peak area as percentage of T=0 / T10 R1 peak area at 250 nm / T24 Avg, peak area as percentage of T=0 / T24 R1 peak area at 250 nm: 50 mM CAPS pH 11, room temperature; for T2 Avg, peak area as percentage of T=0 / T2 R1 peak area at 250 nm: 2 hrs; for T2 R1 peak area at 250 nm / T10 R1 peak area at 250 nm / T24 R1 peak area at 250 nm: replicate 1; for T10 Avg, peak area as percentage of T=0 / T10 R1 peak area at 250 nm: 10 hrs; for T24 Avg, peak area as percentage of T=0 / T24 R1 peak area at 250 nm: 24 hrs; for T0 Avg, peak area as percentage of T=0: T=0 (reference)
Description: Basic assay procedure: RNA samples were diluted to 1.0 mg/mL in DNAase/RNAase free water. Amino acids were dissolved in water to a stock solution of 100 mM and a solution of 500 mM CAPS pH 11 was used. The two mRNA constructs tested were FgenL and Chi18. Each individual sample volume was 50 μL. To determine the amount of 1 M NaOH needed to adjust the final pH to 11.0 after the addition of all sample components, the sample volume was increased 100 fold (5 mL), the volume of 1 M NaOH recorded and this value was translated back down to the 50 μL sample volume.
The mRNA and amino acid were allowed to incubate for one hour prior to the addition of CAPS pH 11. All steps of the assay were conducted at room temperature.
Degradation reaction: After the CAPS addition, the samples were injected onto the Waters H-Class UPLC system to record the first timepoint, T=O. This resulting chromatogram was processed by integrating the area of absorbance at 250 nm for the mRNA construct. Immediately following this timepoint, the pH was adjusted to 11. Subsequent time points (2 hrs, 10 hrs, and 24 hrs) recorded the Absorbance Units (peak area) at 250 nm as a percentage of the peak area determined at T=O. Integration of the chromatogram for subsequent timepoints was conducted by analyzing the area of absorbance at 250 nm contained within the same time window in which the peak eluted in T=0 for the 100% intact mRNA.

FgenL model RNA [4] = settings: percent protection, pH 11.0, 44° C., 16 hours, n = 2
Description: as §1, §2, §3, §4

| Compound | EC50 (Chi18 model RNA [1]) | % Control N = 1 (FgenL model RNA [2]) | % Control N = 2 (FgenL model RNA [2]) | % Control Average (FgenL model RNA [2]) | Conc. FgenL#1 (FgenL model RNA [2]) | Conc. FgenL#2 (FgenL model RNA [2]) | % Control N = 1 (Chi18 model RNA [3]) | % Control N = 2 (Chi18 model RNA [3]) | % Control Avg. (Chi18 model RNA [3]) | Conc. chi18#1 (Chi18 model RNA [3]) | Conc. chi18#2 (Chi18 model RNA [3]) | T0 R1 peak area at 250 nm (Chi18 mRNA construct) | T2 Avg, peak area as percentage of T=0 (Chi18 mRNA construct) | T2 R1 peak area at 250 nm (Chi18 mRNA construct) | T10 Avg, peak area as percentage of T=0 (Chi18 mRNA construct) | T10 R1 peak area at 250 nm (Chi18 mRNA construct) | T24 Avg, peak area as percentage of T=0 (Chi18 mRNA construct) | T24 R1 peak area at 250 nm (Chi18 mRNA construct) | T0 Avg, peak area as percentage of T=0 (Chi18 mRNA construct) | EC50 (FgenL model RNA [4]) |
| --- | --- | --- | --- | --- | --- | --- | --- | --- | --- | --- | --- | --- | --- | --- | --- | --- | --- | --- | --- | --- |
| NC(=O)CC[C@H](N)C(=O)O [Glutamine] | 8.8 mM | 29.0% | 10.3% | 19.6% | 10 | 3.57 | 15.9% | 17.8% | 16.8% | 8.46 | 9.42 | 25301 | 51.1% | 10030 | 0.0% | 0 | 0.0% | 0 | 100.0% | > 30 mM |
| N[C@@H](CCC(=O)N[C@@H](CS)C(=O)NCC(=O)O)C(=O)O [Glutathione] | > 30 mM | 42.9% | 35.7% | 39.3% | 14.8 | 12.4 | 29.3% | 26.7% | 28.0% | 15.6 | 14.1 | 13157 | 48.7% | 7747 | 0.0% | 0 | 0.0% | 0 | 100.0% | > 30 mM |
| NCC(=O)O [Glycine] | 15 mM | 39.4% | 37.2% | 38.3% | 13.6 | 12.9 | 42.0% | 51.4% | 46.7% | 22.4 | 27.2 | 32571 | 69.6% | 21950 | 0.0% | 0 | 0.0% | 0 | 100.0% | > 30 mM |
| N[C@@H](Cc1c[nH]cn1)C(=O)O [Histidine] | > 30 mM | 4.2% | 3.7% | 4.0% | 1.46 | 1.3 | 3.0% | 3.2% | 3.1% | 1.58 | 1.68 | 27170 | 152.8% | 14612 | 2.8% | 1391 | 0.0% | 0 | 100.0% | > 30 mM |
| O=C(O)[C@@H]1C[C@@H](O)CN1 [Hydroxyproline] | > 30 mM | 14.8% | 10.7% | 12.8% | 5.12 | 3.73 | 17.3% | 17.3% | 17.3% | 9.2 |  | 13659 | 76.2% | 8540 | 34.2% | 3280 | 0.0% | 0 | 100.0% | > 30 mM |
| CC[C@H](C)[C@H](N)C(=O)O [Isoleucine] | > 19 mM | 12.2% | 9.5% | 10.8% | 4.22 | 3.28 | 19.3% | 24.2% | 21.8% | 10.3 | 12.8 | 15361 | 63.2% | 7533 | 33.8% | 4699 | 0.0% | 0 | 100.0% | > 30 mM |
